Assay [1] has as its target T1, α-glucosidase (EC3.2.1.20) (Saccharomyces cerevisiae, UniProt P53341).
T1 construct: purchased Sigma Aldrich
Description: biochemical. The procedure:
The inhibitory activity of α-glucosidase (EC3.2.1.20) was carried out with a few changes from literature reported method, using p-nitrophenyl-α-D-glucopyranoside at optimal pH of 6.8 (50 mM phosphate buffer)[3]. Inhibitors were dissolved and diluted to a needed concentration in DMSO. […] The absorbance of formed p-nitrophenol immediately measured with a wavelength of 405 nm at 37 °C. […] Calculation of the % of inhibition was as follows: (1) Activity (%)=100[1+([I]/IC50)]

Assay [2] deals with T1, α-glucosidase (EC3.2.1.20). Description: α-Glucosidase enzyme kinetics (Lineweaver–Burk, Dixon plots, secondary plots, Yang's method). Set-up: Vmax: unit not given here. Type of assay: biochemical. The note with it: for Kik/Kiv: Yang's method; for Kinetic mode: double reciprocal (Lineweaver–Burk) plots; for KIS: inhibitor binding with enzyme-substrate complex, secondary plots of intercepts. The procedure:
Similarly, the enzyme kinetic modes were clarified using a different p-nitrophenyl-α-D-glucopyranoside substrate (0, 0.5, 1, and 2 mM) and inhibitors concentrations. Analysis of the data used to determine the individual parameters of curves was prepared in the nonlinear regression program Sigma Plot (SPCC Inc., Chicago, IL, USA). The kinetic parameters, Michaelis–Menten (Km) and maximum velocity (Vmax), were found using Lineweaver–Burk plots. The dissociation constants between inhibitor and enzyme (Ki) were found from Dixon plots. Two inhibition constants for inhibitor binding with either free or enzyme-substrate complex, KI or KIS, were calculated from secondary plots of the slopes of the straight lines or vertical intercept (1/ Vmaxapp ), respectively, verse the concentration of inhibitors by Equations (2)–(4). Kik and Kiv rate constants were calculated according to Equations (5) and (6) proposed by Yang et al.[20]: (2) 1/V=Km/Vmax(1 + [I]/KI)1/S + 1/Vmax (3) Slope =Km/KIVmax[I] +Km/Vmax (4) Intercept = 1/KISVmax[I] +[…] (5) Km=Km0× (1 + [I]/Kik) (6) Vm=Vm0× (1 + [I]/Kiv)

The target in assay [3] is T2, α-glucosidase (Saccharomyces cerevisiae, UniProt P53341).
T2 construct: purchased Sigma Aldrich
Description: Binding affinity measurement by fluorescence quenching (Stern–Volmer). The note with it: for KSV: Stern–Volmer constant. The procedure:
180 µL of 50 mM phosphate buffer (pH 6.8) with 10 µL of 0.2 unit/mL α-glucosidase were added into the 96-well black immuno-plates then 10 µL different concentrations (2–32 µM) of inhibitor were added. Fluorescent emission spectra were recorded from 300 to 400 nm, emission slits adjusted to 2.0 nm, and the excitation was 250 nm, using spectrophotometer (SpectraMax M3). There was no significant emission from any ingredient in the assay system under given experimental conditions (i.e. emission from 300 to 400 nm). A level of affinity was expressed with KSV, which was analysed using the Stern–Volmer equation: (12) […]=1+KSV[Qf] where F0 and F are the fluorescence intensities in the absence and presence of a quencher. Qf is a concentration of compounds.

Assay [4] deals with T2, α-glucosidase. Description: Progress curves and time-dependent (slow-binding) assay. Type of assay: biochemical. The procedure:
Time-dependent assays of inhibitors at the different preincubation time (0, 15, 30, 45, 60 and 80 min) were accomplished using 0.05 unit/mL final concentration of α-glucosidase and p-nitrophenyl-α-D-glucopyranoside substrate (1 mM) in 50 mM phosphate buffer (pH 6.8) at 37 °C[21]. The progress curves were monitored every 30 s for 30 min. Furthermore, to clearly understand the time-dependent inhibition mode of α-glucosidase, inhibitors were assayed using different concentrations. Accordingly, the progress curves were calculated using Equations (7)–(11). Analysis of the data was prepared by the nonlinear regression program Sigma Plot (SPCC Inc., Chicago, IL, USA): (7) [P]t/[E]= vst+ vi−vs/kobs(1−e^−kobst) where [P]t is the concentration of product formed and [E] is the total enzyme concentration. (8) v/v0= exp (−kobst) (9) Enz+I⇄k4k3Enz−I (10) kobs=k4(1+[I]/Kiapp) (11) Kiapp=k4/k3

Assay [5] has as its target T1, α-glucosidase (EC3.2.1.20). Description: α-Glucosidase enzyme kinetics (Lineweaver–Burk, Dixon plots, secondary plots, Yang's method). The note with it: enzyme activity vs. enzyme concentration at different inhibitor concentrations. Type of assay: biochemical.
The mark [6] stands for this setting: p-NPG substrate, 50 mM phosphate buffer pH 6.8, 37 °C, read-out: IC50.
Setting [7] is: fluorescence quenching, read-out: KA (converted).
Setting [8] is: from Dixon plots, read-out: Ki (inhibition constant).
[9] abbreviates: slow-binding fit, Equations (10) and (11).

6 molecules from article PMC6735331, “Competitive α-glucosidase inhibitors, dihydrobenzoxanthones, from the barks of Artocarpus elasticus” (Journal of Enzyme Inhibition and Medicinal Chemistry, 2019) can be followed below.

Molecules are shown by their SMILES. “Also recorded” adds a separate entry of the source. Read-outs that look alike come from different tables or passages of the source.

T1 sequence (P53341 whole entry): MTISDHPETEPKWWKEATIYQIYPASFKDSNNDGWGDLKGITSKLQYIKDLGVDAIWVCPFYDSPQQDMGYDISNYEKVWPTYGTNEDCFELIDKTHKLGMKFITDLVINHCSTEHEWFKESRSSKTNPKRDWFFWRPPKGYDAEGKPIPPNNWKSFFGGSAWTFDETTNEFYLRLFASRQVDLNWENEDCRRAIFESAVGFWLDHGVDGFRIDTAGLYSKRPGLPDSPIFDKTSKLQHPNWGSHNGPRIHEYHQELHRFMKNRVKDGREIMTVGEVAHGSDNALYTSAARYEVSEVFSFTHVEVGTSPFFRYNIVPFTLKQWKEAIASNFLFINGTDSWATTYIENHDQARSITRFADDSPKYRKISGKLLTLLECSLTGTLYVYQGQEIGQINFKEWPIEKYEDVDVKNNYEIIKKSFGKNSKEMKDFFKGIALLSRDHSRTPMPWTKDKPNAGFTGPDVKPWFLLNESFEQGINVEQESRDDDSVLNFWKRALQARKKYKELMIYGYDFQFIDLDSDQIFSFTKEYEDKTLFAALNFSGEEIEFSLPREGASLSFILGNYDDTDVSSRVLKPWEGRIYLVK
T2 sequence (P53341 whole entry): as above

With `CC(C)=CCCC1(C)C=Cc2c(cc(O)c3c(=O)c(CC=C(C)C)c(-c4cc(O)c(O)cc4O)oc23)O1` (single isomer, unassigned; (-)) [Compound 5, (-)-2-(2,4,5-trihydroxyphenyl)-3-(3-methyl-2-buten-1-yl)-5-hydroxy-8-methyl-8-(4-methyl-3-penten-1-yl)-4H,8H-benzo[1,2-b:3,4-b']dipyran-4-one], the IC50 (as a rule, the concentration needed to halve the response being measured) in assay [1] (setting [6]) came out at 8.8 ± 0.3 µM. In assay [2] ([I] 7.5 μM), the Vmax came to 4.74 and the Kik/Kiv is listed as 3.79. Moreover, in assay [2] ([I] 15.0 μM), the Vmax was determined as 3.67 and the Kik/Kiv turned out to be 3.18. In addition, in assay [2] ([I] 30.0 μM), the Vmax came out at 2.79 and the Kik/Kiv is listed as 3.25. Besides, in assay [2], the Kinetic mode entry was “Mixed type I” and the KIS came to 20.4 µM. Moreover, the Ki in assay [2] (inhibitor binding with free enzyme, secondary plots of slopes, read-out: KI) turned out to be 5.4 µM. Moreover, at α-glucosidase [3] (pH 6.8, 37 °C), the KSV is recorded as 1.63 ×10^5 L·mol^–1. Further, at α-glucosidase [3] (setting [7]), the Kd was 1.23 µM.
Regarding `C=C(C)C1Cc2c(oc3cc(OC)cc(O)c3c2=O)-c2c(O)cc(O)c(O)c21` (centres unmarked) [Compound 1, 1,3,4,8-tetrahydroxy-10-methoxy-5-(prop-1-en-2-yl)-5,6-dihydro-benzo[c]xanthen-7-one], the IC50 in assay [1] (setting [6]) is 7.6 ± 0.2 µM. The Vmax in assay [2] ([I] 4.0 μM) was 6.30; in assay [2] ([I] 8.0 μM), 6.50; in assay [2] ([I] 16.0 μM), 7.55. For the same molecule, the Kik/Kiv was determined as 55.80 in assay [2] ([I] 4.0 μM), 48.88 in assay [2] ([I] 8.0 μM) and 29.79 in assay [2] ([I] 16.0 μM). Also, the Kinetic mode result in assay [2] was “Competitive”. For the same molecule, the Ki in assay [2] (setting [8]) came out at 2.9 µM; at α-glucosidase [4] (slow-binding fit, Kiapp = k4/k3) it was 0.38 µM. In addition, the Time-dependent inhibition mode result at α-glucosidase [4] (preincubation time dependence, kobs vs [I]) was “competitive and reversible simple slow-binding; also recorded: slow-binding inhibitor”. The k3 at α-glucosidase [4] (setting [9]) came to 728 M⁻¹ s⁻¹. Moreover, the k4 on α-glucosidase [4] (setting [9]) is 0.0166 min⁻¹. Besides, the KSV at α-glucosidase [3] is 1.84 × 10^5 Lmol^−1; at α-glucosidase [3] (pH 6.8, 37 °C), 1.84 ×10^5 L·mol^–1. In addition, on α-glucosidase [3] (setting [7]), the Kd is 1.27 µM. For the same molecule, the Reversibility of inhibition entry in assay [5] is “reversible inhibitor”.
Consider `C=C(C)[C@H]1Cc2c(oc3c4c(cc(O)c3c2=O)OC(C)(C)C=C4)-c2c(O)cc(O)c(O)c21` [Compound 2, artobiloxanthone], for which the IC50 in assay [1] (setting [6]) was 8.6 ± 0.5 µM. Besides, the values for the Vmax in assay [2] ([I] 7.5 μM), in assay [2] ([I] 15.0 μM) and in assay [2] ([I] 30.0 μM) were 9.7056, 9.6712 and 9.8012, respectively. Also, the Kik/Kiv in assay [2] ([I] 7.5 μM) was determined as 76.6587; in assay [2] ([I] 15.0 μM), 102.4604; in assay [2] ([I] 30.0 μM) it was 209.3396. The Kinetic mode entry in assay [2] is on record as “Competitive”. Besides, in assay [2] (setting [8]), the Ki amounted to 5.1 µM. Besides, the KSV on α-glucosidase [3] (pH 6.8, 37 °C) is 1.53 ×10^5 L·mol^–1. Further, on α-glucosidase [3] (setting [7]), the Kd is 1.32 µM.
Regarding `CC1(C)Oc2c(O)cc(O)c3c2C1Cc1c-3oc2cc(O)cc(O)c2c1=O` (centres unmarked) [Compound 3, artoindonesianin P], the IC50 in assay [1] (setting [6]) came out at 25.4 ± 0.7 µM. The figures for the Vmax in assay [2] ([I] 17.5 μM), in assay [2] ([I] 35 μM) and in assay [2] ([I] 70 μM) were 6.6800, 6.7889 and 6.7204, respectively. Besides, the Kik/Kiv in assay [2] ([I] 17.5 μM) is listed as 23.8593; in assay [2] ([I] 35 μM), 31.6240; in assay [2] ([I] 70 μM), 75.7804. Besides, the Kinetic mode result in assay [2] is reported as “Competitive”. Also, the Ki in assay [2] (setting [8]) is 12.6 µM. The KSV is 0.51 × 10^5 Lmol^−1 on α-glucosidase [3] and 0.51 ×10^5 L·mol^–1 at α-glucosidase [3] (pH 6.8, 37 °C). For the same molecule, the Kd on α-glucosidase [3] (setting [7]) is 1.75 µM.
As to `CC1(C)C=Cc2c(cc(O)c3c(=O)c4c(oc23)-c2c(O)cc(O)c3c2C(C4)C(C)(C)O3)O1` (centres unmarked) [Compound 4, cycloartobiloxanthone], the IC50 in assay [1] (setting [6]) worked out at 9.6 ± 0.6 µM. For the same molecule, the Vmax in assay [2] ([I] 7.5 μM) was 6.3816; in assay [2] ([I] 15.0 μM) it was 7.3692; in assay [2] ([I] 30.0 μM) it was 7.4627. Besides, the Kik/Kiv in assay [2] ([I] 7.5 μM) is 16.6987; in assay [2] ([I] 15.0 μM), 11.4837; in assay [2] ([I] 30.0 μM), 20.2662. The Kinetic mode result in assay [2] is “Competitive”. In addition, the Ki in assay [2] (setting [8]) worked out at 5.8 µM. Further, the KSV on α-glucosidase [3] (pH 6.8, 37 °C) is reported as 1.29 ×10^5 L·mol^–1. The Kd at α-glucosidase [3] (setting [7]) is 1.27 µM.
On to `CC(C)=CCc1c(-c2cc(O)c(O)cc2O)oc2c3c(cc(O)c2c1=O)OC(C)(C)C=C3` [Compound 6, artonin E], for which, in assay [1], the IC50 came to 16.2 ± 0.8 µM. The Ki in assay [2] (KI, inhibitor binding with free enzyme, secondary plots of slopes) was 15.4 µM; in assay [2] (Ki (inhibition constant), from Dixon plots), 15.8 µM. Further, the Vmax was 5.0352 in assay [2] ([I] 7.5 μM), 4.2992 in assay [2] ([I] 15.0 μM) and 3.6219 in assay [2] ([I] 30.0 μM). Moreover, the Kik/Kiv is listed as 3.7049 in assay [2] ([I] 7.5 μM), 2.5098 in assay [2] ([I] 15.0 μM) and 1.8101 in assay [2] ([I] 30.0 μM). The Kinetic mode entry in assay [2] is on record as “Mixed type I”. The KIS in assay [2] was 51.7 µM. Also, the Kd at α-glucosidase [3] was 1.28 µM. Moreover, the KSV is recorded as 0.93 × 10^5 Lmol^−1 on α-glucosidase [3] and 0.93 ×10^5 L·mol^–1 at α-glucosidase [3] (pH 6.8, 37 °C).
